Experimental data: ChEMBL document CHEMBL1201862, “PubChem BioAssay data set” (2004)
Activity calls are given as the source filed them.

Assays:
Hexokinase HKDC1 = target: T1, Hexokinase HKDC1 (Homo sapiens, UniProt Q2TB90); assay: HKDC1 hexokinase inhibitors, dose response, biochemical, W721R variant (AID 504729); format: functional
T1 sequence (Q2TB90 whole entry): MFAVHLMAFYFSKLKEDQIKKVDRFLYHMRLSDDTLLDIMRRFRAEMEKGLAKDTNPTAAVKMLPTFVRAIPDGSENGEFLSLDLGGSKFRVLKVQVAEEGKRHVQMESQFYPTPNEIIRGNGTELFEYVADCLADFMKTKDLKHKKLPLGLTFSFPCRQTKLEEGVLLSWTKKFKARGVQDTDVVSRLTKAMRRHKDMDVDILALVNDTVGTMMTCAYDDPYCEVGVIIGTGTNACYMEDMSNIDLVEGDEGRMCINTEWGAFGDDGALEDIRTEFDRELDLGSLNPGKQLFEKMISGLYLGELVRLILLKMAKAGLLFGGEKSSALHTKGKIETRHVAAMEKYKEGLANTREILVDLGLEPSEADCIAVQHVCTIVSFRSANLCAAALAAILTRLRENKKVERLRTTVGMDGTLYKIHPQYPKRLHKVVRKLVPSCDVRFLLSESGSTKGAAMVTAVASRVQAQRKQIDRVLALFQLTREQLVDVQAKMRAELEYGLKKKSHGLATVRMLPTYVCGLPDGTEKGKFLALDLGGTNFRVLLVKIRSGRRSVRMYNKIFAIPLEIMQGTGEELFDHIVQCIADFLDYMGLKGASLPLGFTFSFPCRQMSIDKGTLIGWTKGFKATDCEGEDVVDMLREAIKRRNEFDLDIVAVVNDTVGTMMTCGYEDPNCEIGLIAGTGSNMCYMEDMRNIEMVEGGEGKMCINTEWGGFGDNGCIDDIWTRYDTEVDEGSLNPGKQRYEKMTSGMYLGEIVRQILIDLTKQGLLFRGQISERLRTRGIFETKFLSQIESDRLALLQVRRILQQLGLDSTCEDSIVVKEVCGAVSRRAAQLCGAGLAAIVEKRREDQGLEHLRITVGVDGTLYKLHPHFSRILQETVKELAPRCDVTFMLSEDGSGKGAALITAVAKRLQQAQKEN

[1] = target: Eukaryotic translation initiation factor 4E (Mus musculus, UniProt P63073); assay: eIF4E–eIF4G protein interaction inhibitors, dose response, biochemical, TR-FRET (AID 855); format: functional;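 note: potency for disrupting eIF4E binding to eIF4GI seen as loss of FRET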
[2] = target: Cystic fibrosis transmembrane conductance regulator/Golgi-associated PDZ and coiled-coil motif-containing protein (Homo sapiens, UniProt P13569+Q9HD26); assay: CAL PDZ peptide-binding inhibitors, dose response, biochemical, fluorescence polarization, Cerulean-tagged CAL PDZ, cherry-picks (AID 504773)
[3] = target: T2, Replicative DNA helicase DnaB (Mycobacterium tuberculosis, UniProt P9WMR3); assay: DnaB intein splicing inhibitors, dose response, biochemical, cell-free fluorescence (AID 449749); format: functional
T2 sequence (P9WMR3 whole entry): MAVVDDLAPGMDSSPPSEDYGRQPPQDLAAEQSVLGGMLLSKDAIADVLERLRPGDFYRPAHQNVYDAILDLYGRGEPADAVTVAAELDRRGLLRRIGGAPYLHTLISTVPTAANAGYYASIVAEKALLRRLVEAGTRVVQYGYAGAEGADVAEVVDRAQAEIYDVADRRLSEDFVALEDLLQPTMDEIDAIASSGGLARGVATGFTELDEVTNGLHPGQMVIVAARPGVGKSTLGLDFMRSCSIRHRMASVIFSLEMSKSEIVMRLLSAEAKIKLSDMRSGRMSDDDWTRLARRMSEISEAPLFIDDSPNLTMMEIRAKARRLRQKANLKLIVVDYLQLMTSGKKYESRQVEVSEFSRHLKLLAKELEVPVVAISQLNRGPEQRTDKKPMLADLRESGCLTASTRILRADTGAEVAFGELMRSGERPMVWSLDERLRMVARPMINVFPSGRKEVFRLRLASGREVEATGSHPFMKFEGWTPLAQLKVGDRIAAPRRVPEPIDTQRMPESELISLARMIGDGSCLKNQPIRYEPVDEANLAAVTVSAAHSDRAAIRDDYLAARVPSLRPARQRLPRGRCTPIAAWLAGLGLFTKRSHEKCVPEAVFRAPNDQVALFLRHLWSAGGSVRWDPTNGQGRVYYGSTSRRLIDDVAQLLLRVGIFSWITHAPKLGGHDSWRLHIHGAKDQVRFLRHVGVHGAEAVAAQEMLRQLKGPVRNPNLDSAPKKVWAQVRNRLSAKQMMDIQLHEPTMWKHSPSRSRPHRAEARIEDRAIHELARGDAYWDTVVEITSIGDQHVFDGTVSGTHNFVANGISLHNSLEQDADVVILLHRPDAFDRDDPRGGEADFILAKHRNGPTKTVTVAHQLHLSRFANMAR

[4] = CAL PDZ domain peptide-binding inhibitors, dose response, biochemical, fluorescence polarization, untagged CAL PDZ, cherry-pick (AID 602267); format: functional
Protein RecA = target: T3, Protein RecA (Mycobacterium tuberculosis, UniProt P9WHJ3); assay: Fluorescence Cell-Free Homogeneous Dose Retest to Identify Inhibitors of RecA-Intein Splicing Activity. [Related pubchem assays (depositor defined):AID2097, AID2223, AID489010, AID492950]; format: functional
T3 sequence (P9WHJ3 whole entry): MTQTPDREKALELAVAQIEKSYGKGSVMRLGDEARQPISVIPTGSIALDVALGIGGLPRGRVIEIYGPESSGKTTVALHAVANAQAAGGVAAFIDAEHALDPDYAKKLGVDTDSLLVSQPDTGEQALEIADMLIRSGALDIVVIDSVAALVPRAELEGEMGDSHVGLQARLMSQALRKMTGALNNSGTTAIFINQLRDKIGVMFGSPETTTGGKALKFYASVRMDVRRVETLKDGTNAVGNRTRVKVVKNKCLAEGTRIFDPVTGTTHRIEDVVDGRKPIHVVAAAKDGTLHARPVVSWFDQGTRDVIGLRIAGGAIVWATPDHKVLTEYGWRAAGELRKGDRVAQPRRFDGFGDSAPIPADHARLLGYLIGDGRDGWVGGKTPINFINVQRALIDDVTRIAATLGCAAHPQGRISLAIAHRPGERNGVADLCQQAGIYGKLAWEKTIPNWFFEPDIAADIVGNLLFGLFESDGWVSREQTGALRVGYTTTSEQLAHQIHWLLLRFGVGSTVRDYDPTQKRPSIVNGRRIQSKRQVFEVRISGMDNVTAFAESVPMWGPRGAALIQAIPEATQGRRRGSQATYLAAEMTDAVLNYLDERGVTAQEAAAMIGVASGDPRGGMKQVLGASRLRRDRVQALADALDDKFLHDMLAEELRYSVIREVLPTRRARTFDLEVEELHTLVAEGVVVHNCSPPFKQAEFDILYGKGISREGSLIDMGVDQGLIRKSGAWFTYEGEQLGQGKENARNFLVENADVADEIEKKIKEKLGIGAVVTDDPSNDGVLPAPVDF

Sequence of Cystic fibrosis transmembrane conductance regulator/Golgi-associated PDZ and coiled-coil motif-containing protein (P13569 whole entry, other chains not shown): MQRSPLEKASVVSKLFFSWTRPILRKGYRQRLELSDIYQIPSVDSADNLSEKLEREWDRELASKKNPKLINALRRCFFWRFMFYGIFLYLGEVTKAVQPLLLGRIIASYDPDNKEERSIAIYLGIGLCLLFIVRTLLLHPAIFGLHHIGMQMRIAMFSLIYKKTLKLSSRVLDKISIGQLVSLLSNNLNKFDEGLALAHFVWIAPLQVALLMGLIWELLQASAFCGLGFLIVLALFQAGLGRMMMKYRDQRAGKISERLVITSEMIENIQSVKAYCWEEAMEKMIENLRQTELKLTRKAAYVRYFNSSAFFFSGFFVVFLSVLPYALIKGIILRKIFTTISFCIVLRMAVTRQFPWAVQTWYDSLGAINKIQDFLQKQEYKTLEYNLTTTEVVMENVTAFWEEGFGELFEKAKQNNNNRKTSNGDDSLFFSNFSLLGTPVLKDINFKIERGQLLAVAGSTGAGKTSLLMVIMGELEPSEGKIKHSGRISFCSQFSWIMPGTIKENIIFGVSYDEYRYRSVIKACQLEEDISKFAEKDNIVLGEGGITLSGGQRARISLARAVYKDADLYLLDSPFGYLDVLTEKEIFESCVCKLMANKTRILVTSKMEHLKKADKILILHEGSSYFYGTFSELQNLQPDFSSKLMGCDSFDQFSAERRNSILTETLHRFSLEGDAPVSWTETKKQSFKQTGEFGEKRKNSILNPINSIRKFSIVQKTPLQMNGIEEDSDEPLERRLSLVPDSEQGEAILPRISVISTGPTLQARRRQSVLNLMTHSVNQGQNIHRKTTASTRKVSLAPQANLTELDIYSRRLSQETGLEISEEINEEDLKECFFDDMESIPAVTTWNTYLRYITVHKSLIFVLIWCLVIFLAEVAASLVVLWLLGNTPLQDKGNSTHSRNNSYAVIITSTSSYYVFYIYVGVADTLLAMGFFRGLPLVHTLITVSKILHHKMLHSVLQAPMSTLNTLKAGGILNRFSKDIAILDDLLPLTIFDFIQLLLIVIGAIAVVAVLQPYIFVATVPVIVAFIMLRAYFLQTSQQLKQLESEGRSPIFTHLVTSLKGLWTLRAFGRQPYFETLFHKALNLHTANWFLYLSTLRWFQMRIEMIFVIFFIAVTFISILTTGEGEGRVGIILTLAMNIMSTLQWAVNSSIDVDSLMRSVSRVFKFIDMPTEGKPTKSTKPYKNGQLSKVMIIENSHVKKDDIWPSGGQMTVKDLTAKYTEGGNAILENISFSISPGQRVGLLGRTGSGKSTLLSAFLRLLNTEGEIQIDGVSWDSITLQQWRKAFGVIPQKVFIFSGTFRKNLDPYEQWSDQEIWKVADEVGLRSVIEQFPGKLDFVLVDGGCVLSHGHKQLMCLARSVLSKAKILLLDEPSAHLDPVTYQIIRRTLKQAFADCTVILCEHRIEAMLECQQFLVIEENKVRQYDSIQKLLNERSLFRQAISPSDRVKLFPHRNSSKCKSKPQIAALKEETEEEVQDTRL
Sequence of Eukaryotic translation initiation factor 4E (P63073 whole entry): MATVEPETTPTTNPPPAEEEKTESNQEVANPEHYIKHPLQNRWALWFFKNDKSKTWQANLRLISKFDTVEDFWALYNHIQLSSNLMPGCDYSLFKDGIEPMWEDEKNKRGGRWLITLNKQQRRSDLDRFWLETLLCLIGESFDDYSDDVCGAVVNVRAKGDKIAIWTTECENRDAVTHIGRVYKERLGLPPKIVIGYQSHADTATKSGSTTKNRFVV

O=c1c2ccccc2nc2n1CCC2 [DEOXYVASICINONE]
active: IC50 (Hexokinase HKDC1) 4.32 µM | IC50 [1] 6.2 µM | AC50 [2] 21.3 µM | AC50 [3] 13.3 µM | AC50 [4] 60.4 µM | EC50 (Protein RecA) 11.6 µM
